Test results: PubChem BioAssay AID1963860 (Molecular Pharmacology Branch, DTP, NCI, 2024)

Tested on: CN0375-F725-PDC KRAS spheroid viability
Assay: Anticancer human tumor CN0375-F725-PDC patient-derived colon carcinoma cell line growth inhibition [KRAS2]
Conditions: spheroids with HUVEC and MSC; for IC50: curve of first compound; for viability, T/C: stronger effect = lower value
Method in brief: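 KRAS-mutant tumor cells were grown as spheroids with HUVEC endothelial cells and human MSCs as stroma. Targeted agents were tested alone and with KRAS pathway inhibitors. Doses started at or near clinical Cmax, or 10 microM, descending half-log.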

[1] = second compound 0.1 µM, first compound 0.000316 µM
[2] = second compound 0.1 µM, first compound 0.001 µM
[3] = second compound 0.1 µM, first compound 0.00316 µM
[4] = second compound 0.1 µM, first compound 0.01 µM
[5] = second compound 0.1 µM, first compound 0.0316 µM
[6] = second compound 0.316 µM, first compound 0.000316 µM
[7] = second compound 0.316 µM, first compound 0.001 µM
[8] = second compound 0.316 µM, first compound 0.00316 µM
[9] = second compound 0.316 µM, first compound 0.01 µM
[10] = second compound 0.316 µM, first compound 0.0316 µM
[11] = second compound 1 µM, first compound 0.000316 µM
[12] = second compound 1 µM, first compound 0.001 µM
[13] = second compound 1 µM, first compound 0.00316 µM
[14] = second compound 1 µM, first compound 0.01 µM
[15] = second compound 1 µM, first compound 0.0316 µM
[16] = second compound 3.16 µM, first compound 0.000316 µM
[17] = second compound 3.16 µM, first compound 0.001 µM
[18] = second compound 3.16 µM, first compound 0.00316 µM
[19] = second compound 3.16 µM, first compound 0.01 µM
[20] = second compound 3.16 µM, first compound 0.0316 µM
[21] = second compound 10 µM, first compound 0.000316 µM
[22] = second compound 10 µM, first compound 0.001 µM
[23] = second compound 10 µM, first compound 0.00316 µM
[24] = second compound 10 µM, first compound 0.01 µM
[25] = second compound 10 µM, first compound 0.0316 µM
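Note: spheroids exposed to agents for 7 days.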

CC(C)n1nc(-c2ccc3oc(N)nc3c2)c2c(N)ncnc21 + C=CC(=O)N1CCN(c2nc(=O)n(-c3c(C)ccnc3C(C)C)c3nc(-c4c(O)cccc4F)c(F)cc23)C(C)C1
IC50 (second compound 0.1 µM): 81.5 nM | IC50 (second compound 0.316 µM): 66.7 nM | IC50 (second compound 1 µM): 58.5 nM | IC50 (second compound 3.16 µM): 52.6 nM | IC50 (second compound 10 µM): 39.6 nM | viability, T/C [1]: 95.6% | viability, T/C [2]: 90% | viability, T/C [3]: 75.3% | viability, T/C [4]: 67.4% | viability, T/C [5]: 58.6% | viability, T/C (second compound 0.1 µM, first compound 0.1 µM): 47.9% | viability, T/C [6]: 94% | viability, T/C [7]: 90.9% | viability, T/C [8]: 72% | viability, T/C [9]: 68.8% | viability, T/C [10]: 60.6% | viability, T/C (second compound 0.316 µM, first compound 0.1 µM): 44.5% | viability, T/C [11]: 90.7% | viability, T/C [12]: 93.2% | viability, T/C [13]: 75.1% | viability, T/C [14]: 64.8% | viability, T/C [15]: 56.5% | viability, T/C (second compound 1 µM, first compound 0.1 µM): 45.3% | viability, T/C [16]: 93.9% | viability, T/C [17]: 91.7% | viability, T/C [18]: 77.2% | viability, T/C [19]: 64.5% | viability, T/C [20]: 55.5% | viability, T/C (second compound 3.16 µM, first compound 0.1 µM): 44.6% | viability, T/C [21]: 87.4% | viability, T/C [22]: 77.9% | viability, T/C [23]: 68.9% | viability, T/C [24]: 58.2% | viability, T/C [25]: 51.3% | viability, T/C (second compound 10 µM, first compound 0.1 µM): 45.2%

CC(=O)Nc1cccc(-n2c(=O)n(C3CC3)c(=O)c3c(Nc4ccc(I)cc4F)n(C)c(=O)c(C)c32)c1 + CNCc1ccccc1-c1csc(C(C)Nc2nc(C)nc3cc(OC)c(OC)cc23)c1
IC50 (second compound 0.1 µM): 3.38 nM | IC50 (second compound 0.316 µM): 1.9 nM | IC50 (second compound 1 µM): < 0.1 nM | IC50 (second compound 3.16 µM): < 0.1 nM | IC50 (second compound 10 µM): < 0.1 nM | viability, T/C (second compound 0.1 µM, first compound 0.0001 µM): 89.5% | viability, T/C [1]: 78% | viability, T/C [2]: 59.4% | viability, T/C [3]: 51% | viability, T/C [4]: 42.3% | viability, T/C [5]: 30.2% | viability, T/C (second compound 0.316 µM, first compound 0.0001 µM): 83.9% | viability, T/C [6]: 70.9% | viability, T/C [7]: 56.4% | viability, T/C [8]: 42.7% | viability, T/C [9]: 37.9% | viability, T/C [10]: 26.6% | viability, T/C (second compound 1 µM, first compound 0.0001 µM): 45.4% | viability, T/C [11]: 36.8% | viability, T/C [12]: 13.3% | viability, T/C [13]: 18.2% | viability, T/C [14]: 11.4% | viability, T/C [15]: 3.9% | viability, T/C (second compound 3.16 µM, first compound 0.0001 µM): 1.63% | viability, T/C [16]: 0.39% | viability, T/C [17]: 0.3% | viability, T/C [18]: 0.37% | viability, T/C [19]: 0.23% | viability, T/C [20]: 0.73% | viability, T/C (second compound 10 µM, first compound 0.0001 µM): 0.67% | viability, T/C [21]: 0.27% | viability, T/C [22]: 0.26% | viability, T/C [23]: 0.37% | viability, T/C [24]: 0.36% | viability, T/C [25]: 0.25%
